Data from US12570657B2, “Mesylate salts of heterocyclic cytokinins, compositions containing these derivatives and use thereof” (UNIVERZITA PALACKEHO V OLOMOUCI, priority 2020, dated 2026).
Where two headings read alike, the source gives them in different places.

What was measured:
[1] = Aqueous solubility: concentration of saturated solution by HPLC; type: physicochemical; conditions: for solubility thermodynamic: thermodynamic from solid
Description: Aqueous solubility was measured using the following protocol. Supersaturated solution of meta-topolin mesylate salt was prepared. The solutions were filtered off from visible undissolved particles of the salt to obtain homogenic saturated solution. Saturated solution was diluted 1:10 000 and measured using HPLC Alliance Waters 2690 with C18 Symmetry column with the diameter 2.1 mm and 150 mm length with a porosity of 5 μm. The sample was dissolved in the mobile phase (MeOH: HCOONH4-1:9). The sample was washed with a methanol gradient (10-90%, 35 min) at pH 4 and a flow rate of 0.3 ml/min. The absorbances of the components were detected in the UV region at 210-400 nm. The peak area of meta-topolin mesylate salt was 595 027. The standard was measured as shown in the Table 9 below, Obtained peak area was compared to area peaks measured at certain concentration and the final concentration of saturated solution was determined
Solubility of other cytokinin (CK) mesylates was also determined by this method and the concentrations of saturated solutions are given below in Table 10: […]

[2] = test system: K562 (chronic myeloid leukemia); test: In vitro cytotoxicity, Calcein AM assay, K-562; type: cell-based; conditions: 3-day Calcein-AM assay
Procedure, shortened: (§1)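 Cells in DMEM or RPMI plus 10% heat-inactivated FBS were treated with compounds for 72 h. Calcein accumulation after a 1 h Calcein AM pulse gave the viability signal.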

[3] = test system: MCF-7 (breast adenocarcinoma); test: In vitro cytotoxicity, Calcein AM assay, MCF7; type: cell-based; conditions: 3-day Calcein-AM assay
Procedure, shortened: as §1

[4] = test system: HL-60 (promyelocytic, leukemia); test: In vitro cytotoxicity, Calcein AM assay, HL60; type: cell-based; conditions: Homo sapiens, HL-60, 72 h, 3-day Calcein-AM assay
Procedure, shortened: as §1

[5] = test system: winter wheat leaf segments; test: Senescence bioassay: retention of chlorophyll in excised winter wheat leaf tips; type: in vivo, Triticum aestivum cv. Hereward; conditions: chlorophyll retention at concentration with highest activity; 10^−4 M BAP = 100%
Description: Seeds of winter wheat, Triticum aestivum cv. Hereward, were washed under running water for 24 hours and then sown on vermiculite soaked with Knop's solution. They were placed in a growth chamber at 25° C. with a 16/8 h light/dark period at 50 μmol·m^−2·s^−1. After 7 days, the first leaf was fully developed and the second leaf had started to grow. A tip section of the first leaf, approximately 35 mm long, was removed from 5 seedlings and trimmed slightly to a combined weight of 100 mg. The basal ends of the five leaf tips were placed in the wells of a microtiter polystyrene plate containing 150 μl of each tested compound solution. The entire plate was inserted into a plastic box lined with paper tissues soaked in distilled water to prevent leaf sections from drying out. After 96 h incubation in the dark at 25° C., the leaves were removed and chlorophyll extracted by heating at 80° C. for 10 min in 5 ml of 80% ethanol (v/v). The sample volume was then restored to 5 ml by the addition of 80% ethanol (v/v). The absorbance of the extract was recorded at 665 nm. In addition, chlorophyll extracts from fresh leaves and leaf tips incubated in deionised water were measured. […] Relative activity of the compound at this concentration was calculated (Tab. 3). The activity obtained for 10^−4 M 6-benzylaminopurine (BAP) was postulated as 100%. The values shown are means of five replicates and the whole experiment was repeated twice. The tested cytokinin bases were dissolved in dimethylsulfoxide (DMSO) and the solution brought up to 10^−3 M with distilled water. Cytokinin mesylate salts which are more water-soluble (BAP mesylate, meta-topolin mesylate and kinetin mesylate) could be directly dissolved to form a 10^−3 M solution in distilled water.

[6] = test system: cytokinin-dependent tobacco callus; test: Tobacco callus biotest (stimulation of plant cell division); type: cell-based, Nicotiana tabacum L. cv. Wisconsin 38; conditions: callus growth at concentration with highest activity; 10^−5 M BAP = 100%
skin fibroblasts BJ = test: Cytotoxicity for non-cancer cells, resazurine reduction assay, BJ; conditions: human, 72 h
Description: (§2) It is used for viability testing of both bacterial and eukaryotic cells. […] Cultivation medium was DMEM with 10% FBS. Before the experiment, the cells were subcultured for 2 weeks. For the cytotoxicity evaluation, the cells were trypsinized and pipetted into 96 well plates (5000 cells per well in 80 microliters). After 24 hours, 5× concentrated solutions of the tested compounds in the medium were added. […] IC50 values were calculated from dose response curves using drc library for R programming environment.

keratinocytes HaCaT = test: Cytotoxicity for non-cancer cells, resazurine reduction assay, HaCaT
Description: as §2

[7] = saturated solution in water, free cytokinin base, read-out: c of free CK base
[8] = saturated solution in water, cytokinin mesylate, read-out: c of CK mesylate
[9] = resazurin, 72 hour treatment, HaCaT

Structure (SMILES) | solubility thermodynamic [1, 7] | IC50 ([2]; Homo sapiens, K562, 72 h) | IC50 ([3]; Homo sapiens, MCF7, 72 h) | IC50 [4] | activity (%) [10^−4 mol · l^−1 BAP = 100%] [5] | activity (%) [10^−5 mol · l^−1 BAP = 100%] [6] | solubility thermodynamic [1, 8] | IC50 ([2]; mesylate) | IC50 ([3]; mesylate) | Cytotoxicity for Fibroblasts (GI20) BJ (skin fibroblasts BJ) | Cytotoxicity for Fibroblasts (GI20) HaCaT (keratinocytes HaCaT; [9]) | solubility thermodynamic ([1]; water) | Cytotoxicity for Fibroblasts (GI20) HaCaT (keratinocytes HaCaT; human, 72 h) | c of CK mesylate ([1]; saturated solution in water, cytokinin mesylate) | concentration of saturated solution ([1]; water) | solubility thermodynamic ([1]; water, read-out: concentration of saturated solution)
CS(=O)(=O)O.c1ccc(CNc2ncnc3nc[nH]c23)cc1 [BAP mesylate, 6-benzylaminopurine mesylate] |  |  |  |  | 108% | 104% | 354000 µM | > 167 µM | > 167 µM | >100 µM | >100 µM |  |  |  |  | 
c1ccc(CNc2ncnc3nc[nH]c23)cc1 [BAP, 6-benzylaminopurine] |  | 139 µM | 166 µM | > 167 µM | 100% | 100% |  |  |  | 137.5 µM |  | 370 µM | >100 µM |  |  | 
CS(=O)(=O)O.Oc1cccc(CNc2ncnc3nc[nH]c23)c1 [mT mesylate, 6-(3-hydroxybenzylamino)purine mesylate] |  |  |  |  | 109% | 111% | 24000 µM | 142 µM |  | >100 µM | >100 µM |  |  | 24,011 mM | approximately 24010,81 μM | 8000 µg/mL
Oc1ccccc1CNc1ncnc2nc[nH]c12 [ortho-topolin (oT), 6-(2-hydroxybenzylamino)purine] | 30 µM | > 167 µM | > 167 µM | 78 µM | 67% | 86% |  |  |  | 98.7 µM | >100 µM |  |  |  |  | 

The next lines start with results.

solubility thermodynamic [1, 7] | Structure (SMILES) | IC50 ([2]; Homo sapiens, K562, 72 h) | IC50 ([3]; Homo sapiens, MCF7, 72 h) | IC50 [4] | activity (%) [10^−4 mol · l^−1 BAP = 100%] [5] | activity (%) [10^−5 mol · l^−1 BAP = 100%] [6] | solubility thermodynamic [1, 8] | IC50 ([2]; mesylate) | IC50 ([3]; mesylate) | Cytotoxicity for Fibroblasts (GI20) BJ (skin fibroblasts BJ) | Cytotoxicity for Fibroblasts (GI20) HaCaT (keratinocytes HaCaT; [9]) | solubility thermodynamic ([1]; water) | Cytotoxicity for Fibroblasts (GI20) HaCaT (keratinocytes HaCaT; human, 72 h) | c of CK mesylate ([1]; saturated solution in water, cytokinin mesylate) | concentration of saturated solution ([1]; water) | solubility thermodynamic ([1]; water, read-out: concentration of saturated solution)
210 µM | COc1cccc(CNc2ncnc3nc[nH]c23)c1 [3MeOBAP, 6-(3-methoxybenzylamino)purine] | > 167 µM | > 167 µM | > 167 µM | 101% | 76% |  |  |  |  |  |  |  |  |  | 
60 µM | Oc1cccc(CNc2ncnc3nc[nH]c23)c1 [meta-topolin (mT), 6-(3-hydroxybenzylamino)purine] | 128 µM | > 167 µM | 79.2 µM | 117% | 105% |  |  |  | >100 µM | >100 µM |  |  |  | 60 µg/mL | 
